One series has as its system B16 melanoma 4A5 cell. Nature of the series: Whitening test: theophylline-induced melanine production in B16 melanoma 4A5 cells. The class given is cell-based, mouse. Conditions: sample at a concentration of 100 μM or less; theophylline-induced melanine production; 3 days culture; N=4. In a few lines: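 Murine B16 4A5 cells were grown 24 h, then cultured 3 days in D-MEM with 10% FBS, 0.2 mM theophylline and sample. Melanin was dissolved in 2N NaOH at 60° C for 15 min, read at 450 nm against a synthetic-melanin standard and normalised to BCA protein. Suppression % = [1−(A−B)/(C−B)]×100 versus normal and control groups, with samples at ≤100 μM, N=4.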

Series [1] can be described thus: Stability Test 1: 2% aqueous solution, pH7, room temperature, 4 weeks (residual rate, odor, coloration). The class given is physicochemical. The method, then:
(§1) Aqueous solutions (2%) of various test samples were adjusted to pH7 with a dilute sodium hydroxide aqueous solution, and charged into 50 mL screw tubes, and the tubes were sealed and stored at room temperature for 4 weeks. Thereafter, HPLC measurement were performed (using liquid chromatography manufactured by Tosoh Corp.) and the residual rate was obtained based on the peak area. The residual rate, odor(odor change) and degree of coloration were evaluated based on the following methods and standards, and the results are shown in Table 41.
◯: 80% or more and less than 90%
Δ: 60% or more and less than 80%
X: 20% or more and less than 60%
It was evaluated according to the following criterion by 10 panelists.
Based on the evaluation results, classification was conducted as shown below.
◯: total point of 10 panelists is 25 or more
Δ: total point of 10 panelists is 16 to 24
X: total point of 10 panelists is 15 or less
3: almost no change as compared with that immediately after preparation
2: coloration is observed as compared with that immediately after preparation
1: intense coloration is observed as compared with that immediately after preparation

Series [2] can be described thus: Stability Test 2: 2% aqueous solution, pH7, 50° C., 4 weeks (residual rate, odor, coloration). It counts as physicochemical. The procedure: as §1
The same test as in Test Example 2 was carried out excepting that the sample was stored at 50° C. for 4 weeks instead of storing at room temperature for 4 weeks.

Series [3] is described as follows: Moisturizing test: moisturizing effect by water retention force. To be noted: for moisturizing effect (in words): conclusion from Table 43, compared with ascorbic acid. The class given is physicochemical. The method, then: A sample shown later was dried, and the dried sample was spread in an amount of about 0.4 g (this weight is represented by W0) on the bottom of a weighing bottle (diameter: 3.6 cm, height excluding lid: 1.8 cm) so as to give uniform thickness. The sample contained in the weighing bottle was allowed to stand still in a constant humidity and constant temperature vessel (ENVIROS KCL-1000, TOKYO RIKAKIKAI CO, LTD) under environments of 25° C. and 65% RH. The weight was measured periodically, waiting until sufficient moisture absorption to attain equilibrium of weight increase (about 48 hours). Thereafter, the sample was transferred to under environments of 25° C. and 20% RH (in sealed vessel containing a saturated CH3COOK aqueous solution filled in the bottom part). From the weight after 24 hours (this weight is represented by W1), the amount of retained water per 1 g of the dried sample was calculated according to the following formula. (W1−W0)/W0
From the water amount thus calculated, the moisturizing effect was judged based on the following judging criterion, and the results are shown in Table 43.
Three compounds: 2,3-di-O-glyceryl ascorbic acid, 2,3-di-O-phenylglyceryl ascorbic acid, and glycerin, and
Six compounds: ascorbic acid, ascorbic acid glucoside, 2-O-glyceryl ascorbic acid, 3-O-glyceryl ascorbic acid, 3-O-butylglyceryl ascorbic acid and 3-O-octylglyceryl ascorbic acid, which were adjusted to pH7 with a dilute sodium hydroxide aqueous solution and concentrated.
◯: 25 mg or more and less than 40 mg
Δ: 10 mg or more and less than 25 mg

For series [4], the system named is Normal human dermal fibroblasts. Nature of the series: Collagen production of human fibroblast (Sircol collagen assay, 100 μM, 48 hours). It counts as cell-based. Conditions: cultured 48 hours; for activity at 100 µM: Homo sapiens, Fibroblast, N=4, read-out: Collagen production promoting effect (collagen production amount, % of control group). In a few lines:
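Dermal fibroblasts pre-cultured 24 h, then exposed 48 h to sample at 100 μM in 5% FBS D-MEM at 37 °C, 5% CO2. Free collagen measured by Sircol assay, N=4, expressed as % of untreated control.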

The test system is the same in series [5]. Nature of the series: Collagen production of human fibroblast 2 (100 μM or 500 μM; 2, 4 and 7 days). It counts as cell-based. To be noted: for Collagen production amount in comparison with the control group (% value when the control group is 100%): Table 46, 100 μM or 500 μM (not stated which), average ± standard error, N=4; for collagen production promoting effect over time (in words): 100 μM or 500 μM, culturing 2, 4 and 7 days. The procedure:
Normal human dermal fibroblasts were regulated with a 10% (v/v) fetal bovine serum (manufactured by Roshe Diagnostics)-containing D-MEM so as to give a cell density of 2.5×10^4 cells/well, then, pre-incubation for 24 hours was performed on a 96-well plate. After the medium was removed, a sample regulated with a 5% (v/v) fetal bovine serum-containing D-MEM to a concentration of 100 μM was added to each well, then, cultured for 48 hours under 37° C. and 5% CO2. After completion of culturing, the amount of free collagen was measured using Sircol collagen assay kit (manufactured by Biocolor). The measurement was carried out at N=4.
Free collagen was measured under the same conditions as in Test Example 5 excepting that the concentration of each sample was 100 μM or 500 μM and culturing was carried out for 2 days, 4 days and 7 days. The measurement was carried out at N=4, and the average and standard error, in four test examples, of values of the collagen production amount in comparison with the control group (% value when the control group is 100%) are shown in Tables 46 and 47.

Where [6] appears, read: storage period 2 weeks, 10 panelists.
[7] abbreviates: storage period 4 weeks, 10 panelists.

Regarding `O=C1O[C@H]([C@@H](O)CO)C(O)=C1OCC(O)CO` (some centres unmarked) [Example 3, 2-O-glyceryl ascorbic acid], the “Whitening effect (melanine production suppressing rate)” value (from here on “Whitening effect”) in the series on B16 melanoma 4A5 cell is given as “+ (20 to 40%:+)”. The Residual rate result in series [1] (storage period 0), in series [1] (storage period 2 weeks), in series [1] (storage period 4 weeks), in series [2] (storage period 0), in series [2] (storage period 2 weeks) and in series [2] (storage period 4 weeks) was “⊚ (⊚: 90% or more)” each time. In addition, the Coloration entry is recorded as “◯ (◯: total point of 10 panelists is 25 or more)” in series [1] (storage period 0, 10 panelists); “◯ (◯: total point of 10 panelists is 25 or more)” in series [1] (setting [6]); “◯ (◯: total point of 10 panelists is 25 or more)” in series [1] (setting [7]); “◯ (◯: total point of 10 panelists is 25 or more)” in series [2] (storage period 0, 10 panelists); “◯ (◯: total point of 10 panelists is 25 or more)” in series [2] (setting [6]); “◯ (◯: total point of 10 panelists is 25 or more)” in series [2] (setting [7]). Further, the Odor entry in series [1] (storage period 0, 10 panelists) was “◯ (◯: total point of 10 panelists is 25 or more)”; in series [1] (setting [6]) it was “◯ (◯: total point of 10 panelists is 25 or more)”; in series [1] (setting [7]) it was “◯ (◯: total point of 10 panelists is 25 or more)”; in series [2] (storage period 0, 10 panelists) it was “◯ (◯: total point of 10 panelists is 25 or more)”; in series [2] (setting [6]), “◯ (◯: total point of 10 panelists is 25 or more)”; in series [2] (setting [7]), “◯ (◯: total point of 10 panelists is 25 or more)”. Moreover, the “moisturizing effect (in words)” value in series [3] is listed as “excellent moisturizing effect by far than ascorbic acid”. Further, in series [4], the activity at 100 µM fell in the range of 100 to 200%. Moreover, the “Collagen production amount in comparison with the control group (% value when the control group is 100%)” value in series [5] (culturing period 2 days) is recorded as 226 ± 10%; in series [5] (culturing period 4 days) it was 193 ± 6%; in series [5] (culturing period 7 days) it was 258 ± 22%.
`O=C1O[C@H]([C@@H](O)CO)C(O)=C1O[C@H]1O[C@H](CO)[C@@H](O)[C@H](O)[C@H]1O` [ascorbic acid glucoside, reference compound]: the “Whitening effect” value in the series on B16 melanoma 4A5 cell is “+ (20 to 40%:+)”. Moreover, the “Judgement of moisturizing effect (water amount)” value in series [3] is “⊚ (⊚: 40 mg or more)”. The “Collagen production promoting effect (collagen production amount, % of control group)” value in series [4] (N=4) is “+ (100 to 200%:+)”. The “collagen production promoting effect over time (in words)” value in series [5] is reported as “lowers over time”. Besides, the figures for the “Collagen production amount in comparison with the control group (% value when the control group is 100%)” value in series [5] (culturing period 2 days), in series [5] (culturing period 4 days) and in series [5] (culturing period 7 days) were 193 ± 4%, 239 ± 2% and 179 ± 14%, respectively.
As to `O=C1O[C@H]([C@@H](O)CO)C(OCC(O)CO)=C1OCC(O)CO` (some centres unmarked) [Example 4, 2,3-di-O-glyceryl ascorbic acid], in the series on B16 melanoma 4A5 cell, the “Whitening effect” value was “+ (20 to 40%:+)”. Besides, the Residual rate entry in series [1] (storage period 0), in series [1] (storage period 2 weeks), in series [1] (storage period 4 weeks), in series [2] (storage period 0), in series [2] (storage period 2 weeks) and in series [2] (storage period 4 weeks) was “⊚ (⊚: 90% or more)” throughout. Moreover, the Coloration result in series [1] (storage period 0, 10 panelists) is “◯ (◯: total point of 10 panelists is 25 or more)”; in series [1] (setting [6]) it was “◯ (◯: total point of 10 panelists is 25 or more)”; in series [1] (setting [7]), “◯ (◯: total point of 10 panelists is 25 or more)”; in series [2] (storage period 0, 10 panelists), “◯ (◯: total point of 10 panelists is 25 or more)”; in series [2] (setting [6]), “◯ (◯: total point of 10 panelists is 25 or more)”; in series [2] (setting [7]), “◯ (◯: total point of 10 panelists is 25 or more)”. Also, the Odor result in series [1] (storage period 0, 10 panelists) is “◯ (◯: total point of 10 panelists is 25 or more)”; in series [1] (setting [6]) it was “◯ (◯: total point of 10 panelists is 25 or more)”; in series [1] (setting [7]) it was “◯ (◯: total point of 10 panelists is 25 or more)”; in series [2] (storage period 0, 10 panelists), “◯ (◯: total point of 10 panelists is 25 or more)”; in series [2] (setting [6]) it was “◯ (◯: total point of 10 panelists is 25 or more)”; in series [2] (setting [7]) it was “◯ (◯: total point of 10 panelists is 25 or more)”. Further, in series [3], the “moisturizing effect (in words)” value was “excellent moisturizing effect by far than ascorbic acid”. Besides, the activity at 100 µM in series [4] lay in the range of 100 to 200%. Further, the figures for the “Collagen production amount in comparison with the control group (% value when the control group is 100%)” value in series [5] (culturing period 2 days), in series [5] (culturing period 4 days) and in series [5] (culturing period 7 days) were 161 ± 8%, 171 ± 7% and 209 ± 27%, respectively.
Regarding `O=C1O[C@H]([C@@H](O)CO)C(O)=C1O` [ascorbic acid], in the series with B16 melanoma 4A5 cell, the “Whitening effect” value was “± (<20%:±)”. Moreover, the Residual rate result in series [1] (storage period 0) is “⊚ (⊚: 90% or more)”; in series [1] (storage period 2 weeks) it was “◯ (◯: 80% or more and less than 90%)”; in series [1] (storage period 4 weeks) it was “X (X: 20% or more and less than 60%)”; in series [2] (storage period 0) it was “◯ (◯: 80% or more and less than 90%)”; in series [2] (storage period 2 weeks), “X (X: 20% or more and less than 60%)”; in series [2] (storage period 4 weeks), “X (X: 20% or more and less than 60%)”. Besides, the Coloration entry in series [1] (storage period 0, 10 panelists) is on record as “◯ (◯: total point of 10 panelists is 25 or more)”; in series [1] (setting [6]), “Δ (Δ: total point of 10 panelists is 16 to 24)”; in series [1] (setting [7]) it was “X (X: total point of 10 panelists is 15 or less)”; in series [2] (storage period 0, 10 panelists) it was “◯ (◯: total point of 10 panelists is 25 or more)”; in series [2] (setting [6]), “Δ (Δ: total point of 10 panelists is 16 to 24)”; in series [2] (setting [7]) it was “X (X: total point of 10 panelists is 15 or less)”. Besides, the Odor result in series [1] (storage period 0, 10 panelists) is “◯ (◯: total point of 10 panelists is 25 or more)”; in series [1] (setting [6]), “Δ (Δ: total point of 10 panelists is 16 to 24)”; in series [1] (setting [7]), “X (X: total point of 10 panelists is 15 or less)”; in series [2] (storage period 0, 10 panelists) it was “◯ (◯: total point of 10 panelists is 25 or more)”; in series [2] (setting [6]), “Δ (Δ: total point of 10 panelists is 16 to 24)”; in series [2] (setting [7]), “X (X: total point of 10 panelists is 15 or less)”. Moreover, the “Judgement of moisturizing effect (water amount)” value in series [3] is given as “X (X: less than 10 mg)”. For the same compound, in series [4], the activity at 100 µM fell in the range of 100 to 200%. Besides, in series [5], the “collagen production promoting effect over time (in words)” value is listed as “lowers over time”. For the same compound, the “Collagen production amount in comparison with the control group (% value when the control group is 100%)” value in series [5] (culturing period 2 days) is on record as 252 ± 12%; in series [5] (culturing period 4 days), 182 ± 9%; in series [5] (culturing period 7 days) it was 139 ± 14%.

Values taken from patent publication US8163939B2, “Ascorbic acid derivative or salt thereof, production method thereof, and cosmetic” (Seikwa Kasei Company, Limited, priority 2007, dated 2012).
